Drawing on ChEMBL document CHEMBL5465560, “Selectivity Literature for EUbOPEN Chemogenomic Library” (2024), this text covers % of control, Kdapp and % of inhibition for six compounds.

Each structure is given as a SMILES string.

In assay [1] the target is Platelet-derived growth factor receptor alpha (Homo sapiens, UniProt P16234). As to the kind of experiment: Selectivity interaction (Ambit KINOMEscan and KiNATiv profiling in Jurkat cells) EUB0000090b PDGFRA. The format is cell-based. The note with it: at 1 µM.
Sequence of Platelet-derived growth factor receptor alpha (P16234 whole entry): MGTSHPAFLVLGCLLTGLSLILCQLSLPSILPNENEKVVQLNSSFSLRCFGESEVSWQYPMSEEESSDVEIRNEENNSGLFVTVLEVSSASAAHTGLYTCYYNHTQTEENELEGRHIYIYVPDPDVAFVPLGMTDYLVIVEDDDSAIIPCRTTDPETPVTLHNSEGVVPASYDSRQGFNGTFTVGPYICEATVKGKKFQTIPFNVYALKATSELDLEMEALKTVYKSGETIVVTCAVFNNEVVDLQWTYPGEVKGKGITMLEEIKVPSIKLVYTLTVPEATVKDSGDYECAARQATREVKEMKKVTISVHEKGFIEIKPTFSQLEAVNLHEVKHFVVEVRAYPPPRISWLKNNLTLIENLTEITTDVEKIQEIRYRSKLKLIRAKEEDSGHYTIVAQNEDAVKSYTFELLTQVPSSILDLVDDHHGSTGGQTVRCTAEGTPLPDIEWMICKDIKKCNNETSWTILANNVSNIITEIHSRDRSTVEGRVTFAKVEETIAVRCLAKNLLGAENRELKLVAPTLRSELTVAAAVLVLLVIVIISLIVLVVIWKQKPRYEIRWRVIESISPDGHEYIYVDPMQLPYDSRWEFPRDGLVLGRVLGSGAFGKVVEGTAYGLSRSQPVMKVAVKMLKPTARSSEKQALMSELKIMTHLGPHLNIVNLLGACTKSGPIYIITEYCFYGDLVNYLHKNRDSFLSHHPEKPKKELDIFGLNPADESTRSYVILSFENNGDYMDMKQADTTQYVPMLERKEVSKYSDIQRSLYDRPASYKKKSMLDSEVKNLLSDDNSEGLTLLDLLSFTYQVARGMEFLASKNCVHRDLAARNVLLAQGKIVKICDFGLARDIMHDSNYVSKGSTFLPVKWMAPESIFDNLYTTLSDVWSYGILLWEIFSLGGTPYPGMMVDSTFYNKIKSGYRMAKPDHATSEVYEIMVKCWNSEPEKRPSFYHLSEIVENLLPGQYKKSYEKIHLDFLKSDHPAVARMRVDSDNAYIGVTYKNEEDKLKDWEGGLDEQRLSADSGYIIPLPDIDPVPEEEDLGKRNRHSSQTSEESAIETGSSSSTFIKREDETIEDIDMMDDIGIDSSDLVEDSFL
Assay [2] concerns the target T1, Ephrin type-B receptor 2 (Homo sapiens) (UniProt P29323).
T1 sequence (whole entry): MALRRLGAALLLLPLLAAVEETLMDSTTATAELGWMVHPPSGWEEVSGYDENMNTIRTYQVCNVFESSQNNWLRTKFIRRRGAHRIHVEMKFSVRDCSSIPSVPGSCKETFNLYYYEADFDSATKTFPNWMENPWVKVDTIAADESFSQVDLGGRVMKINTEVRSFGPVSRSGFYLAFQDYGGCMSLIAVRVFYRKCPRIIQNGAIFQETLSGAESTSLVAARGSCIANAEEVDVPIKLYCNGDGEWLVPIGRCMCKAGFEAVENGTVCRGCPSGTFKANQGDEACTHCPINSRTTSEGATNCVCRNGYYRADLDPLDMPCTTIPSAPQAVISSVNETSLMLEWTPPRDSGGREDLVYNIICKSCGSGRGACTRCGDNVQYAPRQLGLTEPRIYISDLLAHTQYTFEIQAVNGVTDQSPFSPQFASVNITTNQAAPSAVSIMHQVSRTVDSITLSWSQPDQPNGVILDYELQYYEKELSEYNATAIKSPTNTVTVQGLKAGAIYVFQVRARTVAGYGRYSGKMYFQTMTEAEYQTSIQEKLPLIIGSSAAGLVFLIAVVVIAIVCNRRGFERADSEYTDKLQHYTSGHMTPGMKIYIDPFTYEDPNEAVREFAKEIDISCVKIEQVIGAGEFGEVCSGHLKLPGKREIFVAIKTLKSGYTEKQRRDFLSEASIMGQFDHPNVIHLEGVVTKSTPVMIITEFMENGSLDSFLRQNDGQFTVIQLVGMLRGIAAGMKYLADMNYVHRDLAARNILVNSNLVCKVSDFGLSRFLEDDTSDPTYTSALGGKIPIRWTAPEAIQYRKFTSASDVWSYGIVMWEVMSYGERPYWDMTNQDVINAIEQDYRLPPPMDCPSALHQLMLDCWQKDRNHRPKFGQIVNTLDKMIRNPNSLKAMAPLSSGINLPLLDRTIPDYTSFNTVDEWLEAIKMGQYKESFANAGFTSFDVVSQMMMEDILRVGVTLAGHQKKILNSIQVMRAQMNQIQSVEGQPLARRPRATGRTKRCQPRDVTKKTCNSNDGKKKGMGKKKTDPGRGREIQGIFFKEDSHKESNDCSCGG
The note with it: at 10 µM.

Assay [3] deals with T2, Mitogen-activated protein kinase kinase kinase 19 (Homo sapiens) (UniProt Q56UN5).
T2 sequence (whole entry): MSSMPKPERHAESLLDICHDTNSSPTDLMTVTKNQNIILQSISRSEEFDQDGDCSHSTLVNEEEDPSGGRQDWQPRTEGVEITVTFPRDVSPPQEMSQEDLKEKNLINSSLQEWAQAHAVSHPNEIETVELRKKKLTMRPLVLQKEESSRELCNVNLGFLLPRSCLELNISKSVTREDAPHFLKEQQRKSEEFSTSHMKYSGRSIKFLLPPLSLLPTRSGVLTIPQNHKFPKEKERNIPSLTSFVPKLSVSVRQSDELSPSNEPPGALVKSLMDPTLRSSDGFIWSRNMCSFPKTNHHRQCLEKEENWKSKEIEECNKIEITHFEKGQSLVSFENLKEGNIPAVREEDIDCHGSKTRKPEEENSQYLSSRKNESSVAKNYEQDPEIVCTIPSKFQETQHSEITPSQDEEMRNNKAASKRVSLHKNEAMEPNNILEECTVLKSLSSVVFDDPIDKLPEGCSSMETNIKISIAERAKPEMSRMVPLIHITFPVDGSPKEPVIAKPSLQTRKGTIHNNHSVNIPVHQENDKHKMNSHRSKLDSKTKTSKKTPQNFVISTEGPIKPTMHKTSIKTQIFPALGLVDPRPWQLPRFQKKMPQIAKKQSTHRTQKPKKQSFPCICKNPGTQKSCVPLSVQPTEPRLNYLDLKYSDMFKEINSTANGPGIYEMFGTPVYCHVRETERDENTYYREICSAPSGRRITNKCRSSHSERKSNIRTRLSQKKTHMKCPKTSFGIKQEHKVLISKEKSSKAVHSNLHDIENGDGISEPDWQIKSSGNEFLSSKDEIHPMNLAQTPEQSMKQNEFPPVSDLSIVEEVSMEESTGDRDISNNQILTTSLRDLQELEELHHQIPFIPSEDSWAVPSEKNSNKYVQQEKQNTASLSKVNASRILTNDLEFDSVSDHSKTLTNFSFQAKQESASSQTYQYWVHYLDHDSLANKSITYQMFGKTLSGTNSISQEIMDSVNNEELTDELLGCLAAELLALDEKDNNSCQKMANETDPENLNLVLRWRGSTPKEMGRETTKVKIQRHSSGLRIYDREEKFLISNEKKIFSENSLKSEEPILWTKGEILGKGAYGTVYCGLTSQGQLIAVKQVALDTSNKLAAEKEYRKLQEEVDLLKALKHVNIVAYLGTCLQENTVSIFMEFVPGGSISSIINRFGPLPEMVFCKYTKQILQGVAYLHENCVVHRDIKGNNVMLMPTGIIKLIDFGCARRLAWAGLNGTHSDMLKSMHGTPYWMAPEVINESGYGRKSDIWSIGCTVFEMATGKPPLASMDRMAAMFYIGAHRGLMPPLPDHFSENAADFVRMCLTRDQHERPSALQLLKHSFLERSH
The assay can be described thus: Selectivity interaction (KinomeScan (DiscoverX)) EUB0001079a MAP3K19. The note with it: at 1 µM.

The target in assay [4] is Bromodomain-containing protein 4 (Homo sapiens, UniProt O60885).
For assay [5], the target named is Calcium/calmodulin-dependent protein kinase type II subunit delta (Homo sapiens) (UniProt Q13557). The assay can be described thus: Selectivity interaction (KinomeScan (DiscoverX)) EUB0001619a CAMK2D. The note with it: at 1 µM.
Sequence of Calcium/calmodulin-dependent protein kinase type II subunit delta (Homo sapiens) (Q13557 whole entry): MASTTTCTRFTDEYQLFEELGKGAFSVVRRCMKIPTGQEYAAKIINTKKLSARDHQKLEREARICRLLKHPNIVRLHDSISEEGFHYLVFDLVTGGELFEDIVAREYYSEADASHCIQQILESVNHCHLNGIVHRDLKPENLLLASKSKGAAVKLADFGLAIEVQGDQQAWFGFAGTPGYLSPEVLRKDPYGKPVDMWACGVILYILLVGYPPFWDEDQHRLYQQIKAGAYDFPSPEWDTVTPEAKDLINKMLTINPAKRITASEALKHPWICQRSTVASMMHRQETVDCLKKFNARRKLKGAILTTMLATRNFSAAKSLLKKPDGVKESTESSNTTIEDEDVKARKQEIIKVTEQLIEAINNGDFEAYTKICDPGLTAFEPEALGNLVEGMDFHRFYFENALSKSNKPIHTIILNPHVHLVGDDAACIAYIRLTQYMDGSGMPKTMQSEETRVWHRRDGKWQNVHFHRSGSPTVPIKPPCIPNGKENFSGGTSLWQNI
The target of assay [6] is Serine/threonine-protein kinase 38-like (Homo sapiens) (UniProt Q9Y2H1). The assay can be described thus: Selectivity interaction (ActivX KiNativ screen (ex vivo kinase selectivity in human PBMCs)) EUB0001619a STK38L. The note with it: PBMC, at 1 µM. The class given is cell-based.
Sequence of Serine/threonine-protein kinase 38-like (Homo sapiens) (Q9Y2H1 2-464 limits assumed): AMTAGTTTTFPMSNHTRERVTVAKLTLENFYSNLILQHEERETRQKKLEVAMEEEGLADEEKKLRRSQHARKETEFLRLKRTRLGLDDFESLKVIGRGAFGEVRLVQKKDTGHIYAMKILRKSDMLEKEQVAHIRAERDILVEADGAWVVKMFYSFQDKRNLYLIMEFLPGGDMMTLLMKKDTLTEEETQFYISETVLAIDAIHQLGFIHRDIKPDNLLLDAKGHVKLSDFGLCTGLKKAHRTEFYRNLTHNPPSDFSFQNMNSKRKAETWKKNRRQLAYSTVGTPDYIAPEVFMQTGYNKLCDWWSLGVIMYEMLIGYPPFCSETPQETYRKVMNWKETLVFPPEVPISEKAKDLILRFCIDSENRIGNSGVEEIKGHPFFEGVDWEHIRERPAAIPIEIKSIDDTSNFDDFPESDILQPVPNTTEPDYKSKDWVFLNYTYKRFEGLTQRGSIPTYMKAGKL
The target of assay [7] is Dual specificity tyrosine-phosphorylation-regulated kinase 1B (Homo sapiens, UniProt Q9Y463). As to the kind of experiment: Selectivity interaction (KinomeScan (DiscoverX)) EUB0000618a DYRK1B. The note with it: at 10 µM.
Sequence of Dual specificity tyrosine-phosphorylation-regulated kinase 1B (Q9Y463 whole entry, looked up): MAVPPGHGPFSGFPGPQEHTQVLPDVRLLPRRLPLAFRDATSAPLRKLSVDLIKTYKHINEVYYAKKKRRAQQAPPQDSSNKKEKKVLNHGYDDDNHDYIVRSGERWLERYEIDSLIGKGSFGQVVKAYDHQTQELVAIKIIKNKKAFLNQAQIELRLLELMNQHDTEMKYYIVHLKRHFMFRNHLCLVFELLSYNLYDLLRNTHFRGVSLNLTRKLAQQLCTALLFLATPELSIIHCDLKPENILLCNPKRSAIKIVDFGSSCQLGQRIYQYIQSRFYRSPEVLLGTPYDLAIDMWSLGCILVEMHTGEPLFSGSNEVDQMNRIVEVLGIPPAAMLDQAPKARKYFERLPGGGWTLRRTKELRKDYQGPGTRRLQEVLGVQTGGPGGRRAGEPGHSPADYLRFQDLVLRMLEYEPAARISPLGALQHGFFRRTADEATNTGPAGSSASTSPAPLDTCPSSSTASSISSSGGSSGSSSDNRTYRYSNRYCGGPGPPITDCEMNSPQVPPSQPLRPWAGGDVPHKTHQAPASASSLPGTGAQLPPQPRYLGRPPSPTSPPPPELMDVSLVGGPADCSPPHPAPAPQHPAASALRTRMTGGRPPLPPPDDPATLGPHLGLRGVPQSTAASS

Regarding `CN(C)C/C=C/C(=O)Nc1ccc(C(=O)N2CCCC(Nc3ncc(Cl)c(-c4c[nH]c5ccccc45)n3)C2)cc1` (configuration not stated), in assay [1], the % of control was 91%.

Compound `CCN(CC)CCCCNc1ncc2cc(-c3cc(OC)cc(OC)c3)c(NC(=O)NC(C)(C)C)nc2n1` displayed a % of control in assay [2] of 100%.

`Nc1cnc(N2CCc3cc(S(=O)(=O)Nc4c(F)cc(Cl)cc4F)cc(N4CCCC4=O)c32)nc1` [TP-020n] displayed a % of control in assay [3] of 100%.

In assay [4], `CC(=O)Nc1cccc(-n2c(=O)n(C3CC3)c(=O)c3c(Nc4ccc(I)cc4F)n(C)c(=O)c(C)c32)c1` gave a Kdapp of 1920 nM.

Regarding `N#Cc1cccc(-c2c[nH]c3ncnc(N4CCOCC4)c23)c1`, the % of control in assay [5] was 80%. Moreover, the % of inhibition in assay [6] was 20%.

As for `O[C@H]1CC[C@H](Nc2ncc3nc(Nc4c(F)cc(F)cc4F)n([C@H]4CCOC4)c3n2)CC1`, the % of control in assay [7] is 100%.
